# In patent US11116732B2, “Carotenoid-containing cognitive function improving composition for use in exercise therapy for improving cognitive function” (ASTAREAL CO., LTD., priority 2016, dated 2021):
# Tests used:
# [1] = system: adult hippocampal neurogenesis (hippocampal dentate gyrus); assay: Adult hippocampal neurogenesis (AHN): immunohistochemical count of Ki67+, BrdU+ and BrdU+/NeuN+ cells after 4 weeks of ASX uptake with or without low intensity exercise; format: in vivo, mouse; settings: for number of newly matured cells (BrdU+/NeuN+), rate of change relative to the CON group / number of proliferating cells (Ki67+), rate of change relative to the CON group / number of viable cells (BrdU+), rate of change relative to the CON group: 4 weeks
# Source text: (§1) For the purpose of clarifying whether or not hippocampal function improving effect is enhanced by low intensity exercise, influence of combined use of low intensity exercise (7 m/min) of VT or less and ASX uptake (0.5% by weight) on AHN and spatial cognitive function was investigated.
# (§2) All the mice used in this experiment were divided so that the weight was equalized at the preliminary breeding end point. These were divided into four groups of placebo+rest (CON), placebo+low intensity exercise (ME), 0.5% ASX uptake+rest (ASX), and the low intensity exercise+0.5% ASX uptake (ME+ASX) (FIG. 5). Mice were bred each one per a cage.
# 0.5% ASX uptake or placebo uptake was carried out.
# The mice in the low intensity exercise group imposed a treadmill running exercise of 7 m/min for 30 minutes a day. Also, the mice in the rest group were placed on the treadmill for equal time with the running exercise training and were not allowed to exercise anything (control experiment). For the running exercise training, a treadmill for small animals (KN-73, Natsume, Japan) was used. In either of the groups, training or control experiment was imposed once a day in the dark period, which became active for mice.
# BrdU (bromodeoxyuridine) is taken up as an analog molecule of thymidine into the cell nucleus at the S phase of the cell cycle and is used to evaluate cell division, proliferation, and subsequent survival. Thus, BrdU (100 mg/kg BW) was intraperitoneally administered to all mice during three days before starting running exercise and 0.5% ASX uptake (FIG. 5). Administration was carried out only once a day (AM8:00).
# Immunohistochemical staining method is a method of labeling and visualizing a target DNA or protein on a tissue utilizing an antigen antibody reaction. In visualization, it is carried out by labelling an enzyme or a fluorescent substance, etc., which is a substance to be a marker, to an antibody which bounds to an antigen, and reacting with the marker to colorize the antibody adhered portion. In this experiment, fluorescent antibody method was used for evaluation of proliferating cells, viable cells and newly matured neurons.
# In this experiment, BrdU was identified for the evaluation of neoplastic cells. For identification, rat anti-BrdU antibody (Rat anti-BrdU, AbD Serotec) was used as a primary antibody and CyTM3 donkey anti-rat IgG antibody (Cy3 Donkey Anti-Rat IgG, JACKSON) was used as a secondary antibody to fluorescently label with red color and visualized. In addition, for identification of mature neurons, mouse anti-NeuN antibody (Mouse Anti-Neuronal Nuclei monoclonal antibody, Chemicon) was used as a primary antibody, and for visualization, a fluorescently labeled secondary antibody AMCA donkey anti-mouse IgG antibody (AMCA Donkey Anti-Mouse IgG, JACKSON) was used and stained to blue color.
# According to this procedure, newly matured cells were evaluated by BrdU+/NeuN+ reaction (red+bluish white). The procedures of the fluorescent antibody method were shown below.
# In this experiment, for evaluation of cell proliferation, it was identified by Ki67. For identification, rabbit anti-Ki67 antibody (Rabbit anti-Ki67, Abcam) was used as a primary antibody, and Alexa 555 anti-rabbit IgG antibody (Goat Alexa 555 anti-rabbit IgG, Biotium) was used as a secondary antibody to fluorescently label with red color and visualized. In addition, for identification of the matured neurons, mouse anti-NeuN antibody (Mouse Anti-Neuronal Nuclei monoclonal antibody, Chemicon) was used as a primary antibody, and for visualization, a fluorescently labeled secondary antibody AMCA donkey anti-mouse IgG antibody (AMCA Donkey Anti-Mouse IgG, JACKSON) was used and stained to blue color. According to this procedure, newly matured cells were evaluated by Ki67+/NeuN+reaction (red+bluish white). The procedures of the fluorescent antibody method were shown below.
# All data were expressed as an average value±standard error of each sample. […]
# [2] = system: spatial learning memory ability; assay: Morris water maze (MWM): place learning escape training and probe test; format: in vivo, mouse; settings: for escape time during place learning escape training: P<0.05
# Source text: as §1, §2
# 2-11. Evaluation of Spatial Learning Memory Ability: Morris Water Maze (MWM)
# Evaluation of spatial learning memory ability was carried out.
# Here, in order to clarify whether or not improvement of the hippocampal function due to the low intensity exercise is enhanced by ASX uptake, influence of combined use of the low intensity exercise of VT or less and 0.5% ASX uptake on AHN and spatial learning memory ability was investigated. For the evaluation of AHN, the numbers of proliferating cells (Ki67+), viable cells (BrdU+), and newly matured cells (BrdU+/NeuN+) were counted using immunohistochemical staining method and the result thereof was shown by the rate of change relative to the CON group. Also, the spatial learning memory ability was evaluated using the MWM with regard to acquiring ability (learning) of memory by the place learning escape training for 4 days, and retention and recollection ability of memory by the probe test on the fifth day.
# [3] = system: hippocampal gene expression; assay: Hippocampal gene expression by DNA microarray and IPA network analysis; format: in vivo, mouse
# Source text: as §2, with “three” for “four”, “(ME),” for “(ME), 0.5% ASX uptake+rest (ASX),”, “and” for “and the”, “(each n=8).” for “(FIG. 5).”
# The brain was removed two days after 4 weeks training and ASX uptake. The hippocampus was fractionated from the collected brain (Hirano M, Rakwal R, Shibato J, Sawa H, Nagashima K, Ogawa Y, Yoshida Y, Iwahashi H, Niki E, Masuo Y. Proteomics- and transcriptomics-based screening of differentially expressed proteins and genes in brain of Wig rat: a model for attention deficit hyperactivity disorder (ADHD) research. J Proteome Res 7: 2471-2489, 2008). The hippocampus was immediately frozen with liquid nitrogen and stored in a freezer at −80° C. […]
# 3) Hybridization: Samples of fluorescently labeled control group (CON group) and experiment group (ME group, ME+ASX group) are assayed on the same Microarray chip and hybridized with a 60 base pair probe on the slide glass. […] In the program at this time, the color intensity of Cy3 and Cy5 of all the probes was measured. 6) Standardization of data: For standardization of data, LOWESS (locally weighted linear regression) was used, and logarithmic and logarithmic error rates standardized from Cy3 and Cy5 signals were calculated. […]
# [4] = system: hippocampal mRNA expression; assay: Hippocampal mRNA expression by RT-PCR; format: in vivo, mouse
# Source text: as §2, with “three” for “four”, “(ME),” for “(ME), 0.5% ASX uptake+rest (ASX),”, “and” for “and the”, “(each n=8).” for “(FIG. 5).”
# The brain was removed two days after 4 weeks training and ASX uptake. The hippocampus was fractionated from the collected brain (Hirano M, Rakwal R, Shibato J, Sawa H, Nagashima K, Ogawa Y, Yoshida Y, Iwahashi H, Niki E, Masuo Y. Proteomics- and transcriptomics-based screening of differentially expressed proteins and genes in brain of Wig rat: a model for attention deficit hyperactivity disorder (ADHD) research. J Proteome Res 7: 2471-2489, 2008). The hippocampus was immediately frozen with liquid nitrogen and stored in a freezer at −80° C.
# In order to confirm the reproducibility and validity of the molecular mechanism estimated by the microarray and IPA analysis, 12 genes were picked up and the changes in their gene expression were reexamined by RT-PCR.
# All data were expressed as an average value±standard error. For statistical processing of RT-PCR, after one-way analysis of variance (One-way ANOVA), the Bonferroni's tests method was used as post-hoc. All the significance levels were set to less than 5%.
# [5] = system: neural progenitor cells; settings: in vitro; cited from earlier work
# [6] = system: nerve injury due to epilepsy; settings: rat, in vivo; cited from earlier work
# [7] = in vivo; cited from earlier work
# [8] = ASX group compared with the CON group, P<0.05
# [9] = ASX group: 0.5% ASX uptake + rest
# [10] = ME+ASX group: low intensity exercise (7 m/min) + 0.5% ASX uptake
smiles,measurement,setting,value
"CC1=C(/C=C/C(C)=C/C=C/C(C)=C/C=C/C=C(C)/C=C/C=C(C)/C=C/C2=C(C)C(=O)[C@@H](O)CC2(C)C)C(C)(C)C[C@H](O)C1=O [ASX, astaxanthin]",number of BrdU positive cells,[1]; [8],significant increase
same,number of BrdU/NeuN positive cells,[1]; [8],significant increase
same,number of Ki67 positive cells,[1]; [8],significant increase
same,"number of newly matured cells (BrdU+/NeuN+), rate of change relative to the CON group",[1]; [9],+46.3%
same,"number of proliferating cells (Ki67+), rate of change relative to the CON group",[1]; [9],+16.9%
same,"number of viable cells (BrdU+), rate of change relative to the CON group",[1]; [9],+44.9%
same,"effect of the combination of low intensity exercise and ASX uptake on AHN and hippocampal function, against the sum of the ME group and the ASX group",[1]; ME+ASX group,synergistically increases
same,number of Ki67 positive cells,"[1]; ME+ASX group compared with the ME group and the ASX group, P<0.001",significant increase
same,number of BrdU positive cells,"[1]; ME+ASX group compared with the ME group and the ASX group, P<0.05",significant increase
same,"number of newly matured cells (BrdU+/NeuN+), rate of change relative to the CON group",[1]; [10],+102.9%
same,"number of proliferating cells (Ki67+), rate of change relative to the CON group",[1]; [10],+52.3%
same,"number of viable cells (BrdU+), rate of change relative to the CON group",[1]; [10],+95.7%
same,"spatial memory capacity, increase rate for the CON group",[2]; ASX group,25.9%
same,result of the MWM,"[2]; ASX group, 0.5% ASX uptake",significantly improved
same,escape time during place learning escape training,"[2]; ASX group, fourth day",significant shortening
same,probe test: ratio of the cumulative time of swimming within the quadrant where the platform existed to the total swimming time,[2]; [9],30.5%
same,"spatial memory capacity, increase rate for the CON group",[2]; ME+ASX group,60.6%
same,escape time during place learning escape training,"[2]; ME+ASX group compared with the CON, third day",significant shortening
same,probe test: ratio of the cumulative time of swimming within the quadrant where the platform existed to the total swimming time,[2]; ME+ASX group: low intensity exercise + 0.5% ASX uptake,39.9%
same,swimming speed,"[2]; among the groups (CON, ME, ASX, ME+ASX)",no significant difference
same,Igflr (insulin-like growth factor 1 receptor) gene expression (IPA network analysis),[3]; ME+ASX group only,estimated to enhance
same,Lep and Cxcr4 gene expression (IPA network analysis),"[3]; ME+ASX group, similar to the ME group",enhancement
same,"mRNA expression of Cxcr4, Stat3, Mapk1 and Jak2",[4]; ME+ASX group (also in the ME group),significantly increased
same,"mRNA expression of Psen1, Notch2, Igflr, Igfl, Pi3k and Creb",[4]; only in the ME+ASX group,increased significantly
same,proliferation of neural progenitor cells,[5],enhances the proliferation of neural progenitor cells
same,protection against nerve injury due to epilepsy,[6],protect against nerve injury due to epilepsy
same,passage through the blood brain barrier,[7],moves through the blood brain barrier into the brain
